# Results: patent US5464617A, “β-lactam compounds” (Hoffmann-La Roche Inc., priority 1994, dated 1995)
# Counter-ions that a name gives are not always drawn.
# Key:
# [1] = system: Citrobacter freundii 1982; experiment: MIC in vitro of a 1:4 combination of ceftriaxone with a compound of formula I (Test D); type: cell-based; details: for MIC C. freundii 1982 (D): test D; for MIC C. freundii 1982: Table 2
# Experimental: The minimum inhibitory concentration in vitro ([…]) of a 1:4 combination of ceftriaxone with a compound of formula I against Citrobacter freundii 1982 was measured and compiled in Table 2 hereinafter.
# E. coli 1346 = experiment: Antibacterial activity of the products per se, serial dilution method in liquid medium (Test E); type: cell-based; details: product per se; for MIC E. coli 1346 (E): test E; for MIC E. coli 1346: Table 3, liquid medium
# Text: The antibacterial activity of the products per se is illustrated on the basis of Table 3 hereinafter, the minimum inhibitory concentration […] in vitro against E. coli 1346 being determined using the serial dilution method in liquid medium: […]
# [2] = Table 4, 1:4 combination of ceftriaxone with the compound
# [3] = 1:4 combination of ceftriaxone with the compound
Structure (SMILES),"MIC C. freundii 1982 (D) [1, 2] [µg/mL]",MIC E. coli 1346 (E) (E. coli 1346; Table 4) [µg/mL],further results
"N#C/C=C/C1=C(C(=O)O)N2C(=O)[C@H]3NC[C@@H](C1)[C@H]32 [48(b), (E)-(1aS,3aR,6bR)-5-(2-Cyanovinyl)-1-oxo-1a,2,3,3a,4,6b-hexahydro-1H-2,6a-diazacyclobut[cd]indene-6-carboxylic acid trifluoroacetate]",2,4,
"NC(=O)CN1C[C@H]2CC(COC(N)=O)=C(C(=O)O)N3C(=O)[C@@H]1[C@@H]23 [59(d), (1aS,3aR,6bR)-2-Carbamoylmethyl-5-carbamoyloxymethyl-1-oxo-1a,2,3,3a,4,6b-hexahydro-1H-2,6a-diazacyclobut[cd]indene-6-carboxylic acid sodium salt]",1,8,
"O=C(O)C1=C(CSc2ccncc2)S[C@@H]2CN[C@@H]3C(=O)N1[C@@H]32 [40(f), (1aS,3aR,6bS)-1-Oxo-5-(pyridin-4-ylsulphanylmethyl)-4-thia-1,1a,2,3,3a,6b-hexahydro-2,6a-diazacyclobut[cd]indene-6-carboxylic acid]",2,32,
"O=C(O)C1=C(CSc2ccncc2)S[C@@H]2CN(C(=O)Nc3ccc(O)cc3)[C@@H]3C(=O)N1[C@@H]32 [41(b), (1aS,3aR,6bS)-2-(4-Hydroxy-phenylcarbamoyl)-1-oxo-5-(pyridin-4-ylsulphanylmethyl)-4-thia-1,1a,2,3,3a,6b-hexahydro-2,6a-diazacyclobut[cd]indene-6-carboxylic acid sodium salt]",4,> 32,
"C=CCN1C[C@H]2OC(CSc3nnnn3C)=C(C(=O)O)N3C(=O)[C@@H]1[C@@H]23 [Example 30, (1aS,3aR,6bS)-2-Allyl-5-(1-methyl-1H-tetrazol-5-ylsulphanylmethyl)-1-oxo-4-oxa-1,1a,2,3,3a,6b-hexahydro-2,6a-diazacyclobut[cd]indene-6-carboxylic acid sodium salt]",1,8,
"Cc1nnc(SCC2=C(C(=O)O)N3C(=O)[C@@H]4[C@H]3[C@@H](CN4C(=O)CSc3nnnn3C)O2)s1 [Example 34, (1aS,3aR,6bS)-2-(1-Methyl-1H-tetrazol-5-ylsulphanylacetyl)-5-(5-methyl-1,3,4-thiadiazol-2-ylsulphanylmethyl)-1-oxo-1,1a,2,3,3a,6b-hexahydro-4-oxa-2,6a-diazacyclobut[cd]indene-6-carboxylic acid]",1,8,
"O=C(NC1CC1)OCC1=C(C(=O)O)N2C(=O)[C@@H]3[C@H]2[C@H](C1)CN3C(=O)C(F)(F)F [94(b), (1aS,3aR,6bR)-5-Cyclopropylcarbamoyloxymethyl-1-oxo-2-trifluoroacetyl-1a,2,3,3a,4,6b-hexahydro-1H-2,6 a-diazacyclobut[cd]indene-6-carboxylic acid sodium salt]",1,2,
"CO/N=C(\C(=O)N1C[C@H]2CC(COC(N)=O)=C(C(=O)O)N3C(=O)[C@@H]1[C@@H]23)c1csc(N)n1 [Example 60, (Z)-(1aS,3aR,6bR)-2-[(2-Amino-thiazol-4-yl)-methoxyimino-acetyl]-5-carbamoyloxymethyl-1-oxo-1a,2,3,3a,4,6b-hexahydro-1H-2,6a-diazacyclobut[cd]indene-6-carboxylic acid]",2,> 32,
"Cn1nc(O)c(=O)nc1SCC1=C(C(=O)O)N2C(=O)[C@@H]3[C@H]2[C@H](C1)CN3C(=O)Nc1ccc(O)cc1 [Example 54, (1aS,3aR,6bR)-5-(2,5-Dihydro-6-hydroxy-2-methyl-5-oxo-1,2,4-triazin-3-ylsulphanylmethyl)-2-(4-hydroxy-phenylcarbamoyl)-1-oxo-1a,2,3,3a,4,6b-hexahydro-1H-2,6a-diazacydobut[cd]indene-6-carboxylic acid sodium salt (1:2)]",0.25,32,
"O=C(O)C1=C(Sc2ccncc2)C[C@@H]2CN[C@@H]3C(=O)N1[C@H]23 [Example 2(d), (1aS,3aR,6bR)-1-oxo-5-(pyridin-4-ylsulphanyl)-1a,2,3,3a,4,6b-hexahydro-1H-2,6a-diazacyclobut[cd]indene-6-carboxylic acid trifluoroacetate]",64,> 32,
"O=C(O)C1=C(CSc2nnnn2CC(=O)N2CCOCC2)S[C@@H]2CN[C@@H]3C(=O)N1[C@@H]32 [40(g), (1aS,3aR,6bS)-5-[1-(2-Morpholin-4-yl-2-oxo-ethyl)-1H-tetrazol-5-ylsulphanylmethyl]-1-oxo-4-thia-1,1a,2,3,3a,6b-hexahydro-2,6a-diazacyclobut[cd]indene-6-carboxylic acid]",4,> 32,
"CC(=O)N1C[C@H]2CC(CNS(C)(=O)=O)=C(C(=O)O)N3C(=O)[C@@H]1[C@@H]23 [88(a), (1aS,3aR,6bR)-2-Acetyl-5-methylsulphonylaminomethyl-1-oxo-1a,2,3,3a,4,6b-hexahydro-1H-2,6a-diazacyclobut[cd]indene-6-carboxylic acid sodium salt]",4,16,
"Cn1nnnc1SCC1=C(C(=O)O)N2C(=O)[C@@H]3[C@H]2[C@H](C1)CN3C(=O)C(F)(F)F [Example 19(c), (1aS,3aR,6bR)-5-(1-Methyl-1H-tetrazol-5-ylsulphanylmethyl)-1-oxo-2-trifluoracetyl-1a,2,3,3a,4,6b-hexahydro-1H-2,6a-diazacyclobut[cd]indene-6-carboxylic acid sodium salt]",0.5,2,
"Cn1nnnc1SCC1=C(C(=O)O)N2C(=O)[C@@H]3[C@H]2[C@H](C1)CN3C(=O)N[C@H]1CCNC1=O [18(c), (1aS,3aR,6bR)-2-[(S)-2-Oxo-pyrrolidin-3-ylcarbamoyl)-5-(1-methyl-1H-tetrazol-5-ylsulphanylmethyl]-1-oxo-1a,2,3,3a,4,6b-hexahydro-1H-2,6a-diazacyclobut[cd]indene-6-carboxylic acid sodium salt]",,,"MIC C. freundii 1982 [1, 3]: 0.25 µg/mL; MIC E. coli 1346 (E. coli 1346): 32 µg/mL"
"Nc1nnc(SCC2=C(C(=O)O)N3C(=O)[C@H]4NC[C@@H](O2)[C@H]43)s1 [Example 29(c), (1aS,3aR,6bS)-S-(S-Amino-1,3,4-thiadiazol-2-yl-sulphanylmethyl)-1-oxo-4-oxa-1,1a,2,3,3a,6b-hexahydro-2,6a-diazacyclobut[cd]indene-6-carboxylic acid sodium salt]",0.5,2,
"Cn1nnnc1SCC1=C(C(=O)O)N2C(=O)[C@@H]3[C@H]2[C@H](C1)CN3C(=O)Nc1ccc(O)cc1 [18(a), (1aS,3aR,6bR)-2-(4-Hydroxy-phenylcarbamoyl)-5-(1-methyl-1H-tetrazol-5-ylsulphanylmethyl)-1-oxo-1a,2,3,3a,4,6b-hexahydro-1H-2,6a-diazacyclobut[cd]indene-6-carboxylic acid sodium salt]",,,"MIC C. freundii 1982 [1, 3]: 0.25 µg/mL; MIC E. coli 1346 (E. coli 1346): 32 µg/mL"
"O=CN1C[C@H]2OC(CSc3nnnn3CC(=O)NC3CC3)=C(C(=O)O)N3C(=O)[C@@H]1[C@@H]23 [Example 37, (1aS,3aR,6bS)-5-(1-Cyclopropylcarbamoylmethyl-1H-tetrazol-5-ylsulphanylmethyl)-2-formyl-1-oxo-1,1a,2,3,3a,6b-hexahydro-4-oxa-2,6a-diazacyclobut[cd]indene-6-carboxylic acid sodium salt]",32,32,
"Cn1ccnc1SCC1=C(C(=O)O)N2C(=O)[C@H]3NC[C@@H](S1)[C@H]32 [40(c), (1aS,3aR,6bS)-5-(1-Methyl-imidazol-2-ylsulphanyl-methyl)-1-oxo-4-thia-1,1a,2,3,3a,6b-hexahydro-2,6a-diazacyclobut[cd]indene-6-carboxylic acid]",0.5,> 32,
"NC(=O)OCC1=C(C(=O)O)N2C(=O)[C@@H]3[C@H]2[C@H](C1)CN3C(=O)C(F)(F)F [58(d), (1aS,3aR,6bR)-5-Carbamoyloxymethyl-1-oxo-2-trifluoroacetyl-1a,2,3,3a,4,6b-hexahydro-1H-2,6a-diazacyclobut[cd]indene-6-carboxylic acid sodium salt]",,,"MIC C. freundii 1982 (D) ([1]; Table 5, particularly preferred products, 1:4 combination with ceftriaxone): 0.5 µg/mL; MIC E. coli 1346 (E) (E. coli 1346; Table 5, particularly preferred products): 1 µg/mL"
"CC(=O)N1C[C@H]2CC(CSc3nc(-c4cccnc4)cs3)=C(C(=O)O)N3C(=O)[C@@H]1[C@@H]23 [67(a), (1aS,3aR,6bR)-2-Acetyl-1-oxo-5-(4-pyridin-3-yl-thiazol-2-ylsulphanylmethyl)-1a,2,3,3a,4,6b-hexahydro-1H-2,6a-diazacyclobut[cd]indene-6-carboxylic acid sodium salt]",8,0.5,
"O=C(NCc1ccc(O)cc1)OCC1=C(C(=O)O)N2C(=O)[C@H]3NC[C@@H](C1)[C@H]32 [Example 101, (1aS,3aR,6bR)-5-[(4-Hydroxy-benzyl)-carbamoyloxymethyl]-1-oxo-1a,2,3,3a,4,6b-hexahydro-1H-2,6a-diazacyclobut[cd]indene-6-carboxylic acid trifluoroacetate]",1,2,
"CC(=O)N1C[C@H]2OC(CSc3nnc(N)s3)=C(C(=O)O)N3C(=O)[C@@H]1[C@@H]23 [Example 33, (1aS,3aR,6bS)-2-Acetyl-5-(5-amino-1,3,4-thiadiazol-2-ylsulphanylmethyl)-1-oxo-1,1a,2,3,3a,6b-hexahydro-4-oxa-2,6a-diazacyclobut[cd]indene-6-carboxylicacid sodium salt]",2,2,
